These results are taken from patent US7320990B2, “Crystalline form of a biphenyl compound” (Theravance, Inc., priority 2004, dated 2008).

One may read the EC50 as the midpoint of the concentration-response curve.

Data set [1] in a line: Dynamic moisture sorption assessment (DMS). It is filed as physicochemical. The following applies: for deliquescence: exposed to atmosphere moisture. On the procedure: Approximately 10 mg of sample was used in the microbalance and the sample was run as received. The humidity was set at ambient condition on the day the analysis began. A typical DMSG analysis consisted of three scans: ambient to 2% relative humidity (RH), 2% RH to 90% RH, 90% RH to 5% RH. The scan rate was 5% RH/step. The mass was measured every two minutes using an equilibrium window of 5 points within 0.01% of the initial sample weight. The RH was changed to the next value (+/−5% RH) when the mass of the sample was stable to within 0.01% for 5 consecutive points.

Data set [2] in a line: Thermal analysis (DSC and TGA). It is filed as physicochemical. On the procedure:
Differential scanning calorimetry (DSC) was performed using a TA Instruments Model Q-10 module with a Thermal Analyst controller. Data were collected and analyzed using TA Instruments Thermal Solutions software. A sample of about 1 mg was accurately weighed into an aluminum pan with lid. The sample was evaluated using a linear heating ramp of 5° C./min from ambient temperature to approximately 300° C. The DSC cell was purged with dry nitrogen during use.
Thermogravimetric analysis (TGA) was performed using a TA Instruments Model Q-50 module equipped with Hi-Resolution capability. Data were collected and analyzed using TA Instruments Thermal Solutions software. A sample weighing about 10 mg was placed onto a platinum pan and scanned with a high resolution-heating rate from ambient temperature to 300° C. The balance and furnace chambers were purged with nitrogen flows during use.

Data set [3] has as its system human β1, β2 or β3 adrenergic receptors. The experiment in a line: Whole-cell cAMP Flashplate assay in CHO cell lines heterologously expressing human β adrenergic receptors. It is filed as cell-based. The following applies: CHO-K1 cells; receptor subtype not named in the result sentence; read-out: EC50 values (β receptor agonist potency, cAMP). On the procedure:
Test compounds (10 mM in DMSO) were diluted into PBS containing 0.1% BSA in Beckman Biomek-2000 and tested at 11 different concentrations ranging from 100 μM to 1 pM.

In data set [4] the test system is ACh-induced bronchoconstriction. The data set can be described thus: Bronchoprotection in guinea pig model of acetylcholine-induced bronchoconstriction. It is filed as in vivo. Conditions: inhalation, 1.5 hours post-dose. On the procedure: (§1) Groups of 6 male guinea pigs (Duncan-Hartley (HsdPoc:DH) Harlan, Madison, Wis.) weighing between 250 and 350 g were individually identified by cage cards. Throughout the study, animals were allowed access to food and water ad libitum.
(§2) Forty-five minutes prior to the start of the pulmonary evaluation, each guinea pig was anesthetized with an intramuscular injection of ketamine (43.75 mg/kg), xylazine (3.50 mg/kg) and acepromazine (1.05 mg/kg). After the surgical site was shaved and cleaned with 70% alcohol, a 2-3 cm midline incision of the ventral aspect of the neck was made. […] The depth of anesthesia was monitored and adjusted if the animal responds to pinching of its paw or if the respiration rate was greater than 100 breaths/minute. […]
(§3) Once it was determined that baseline values were within the range of 0.3-0.9 mL/cm H2O for compliance and within the range of 0.1-0.199 cm H2O/mL per second for resistance, the pulmonary evaluation was initiated. […]
(§4) Starting this program initiated the experimental protocol and data collection. The changes in […] over time that occur within the plethysmograph with each breath were measured via a Buxco pressure transducer. By integrating this signal over time, a measurement of flow was calculated for each breath. […]

For data set [5], the system named is His-induced bronchoconstriction. The experiment in a line: Bronchoprotection in guinea pig model of histamine-induced bronchoconstriction. It is filed as in vivo. The following applies: inhalation, 1.5 hours post-dose. On the procedure:
as §1, §2, §3, §4

[6] abbreviates: listed as crystalline naphthalene-1,5-disulfonic acid salt of the compound of formula I.
[7] abbreviates: listed as naphthalene-1,5-disulfonic acid salt of the present invention.

As to “Biphenyl-2-ylcarbamic Acid 1-{9-[(R)-2-Hydroxy-2-(8-Hydroxy-2-oxo-1,2-dihydroquinolin-5-yl)ethylamino]nonyl}piperidin-4-yl Ester Naphthalene-1,5-disulfonic Acid Salt [Example 3]”, the moisture sorption/desorption profile result in data set [1] is listed as “reversible”. Further, the deliquescence entry in data set [1] (setting [6]) was “not to be deliquescent”; in data set [1] (setting [7]) it was “not deliquescent”. The weight gain is recorded as 3.7% in data set [1] (humidity range from 2% RH up to 90% RH) and “less than 1.5%” in data set [1] (humidity range of 40% RH to 75% RH). Further, the “hygroscopicity (weight gain when exposed to atmospheric moisture)” value in data set [1] (setting [6]) is recorded as “less than 5%”; in data set [1] (setting [7]), under 5%. Also, the “weight loss (TGA)” value in data set [2] (from room temperature to 150° C.) is “about 1.8%”. In addition, in data set [2] (heating ramp of 5° C./min), the “temperature below which no thermal decomposition occurs (DSC)” value is at least 200 °C.
Consider `O=C(Nc1ccccc1-c1ccccc1)OC1CCN(CCCCCCCCCNC[C@H](O)c2ccc(O)c3[nH]c(=O)ccc23)CC1` [compound of formula I, biphenyl-2-ylcarbamic acid 1-{9-[(R)-2-hydroxy-2-(8-hydroxy-2-oxo-1,2-dihydro-quinolin-5-yl)ethylamino]nonyl}piperidin-4-yl ester], for which the half-maximal effective concentration (EC50) in data set [3] is under 10 nM. In addition, the “ID50 for ACh-induced bronchoconstriction” value in data set [4] is given as “less than 100 μg/mL”. Further, in data set [5], the “ID50 for His-induced bronchoconstriction” value is “less than 100 μg/mL”.
